Laboratory results reported in ChEMBL document CHEMBL5532716, “UPLC-Q-TOF-MS/MS-Based Targeted Discovery of Chetomin Analogues from Chaetomium cochliodes” (J Nat Prod, 2024).

Legend:
A549 = test: Cytotoxicity against human A549 cells assessed as inhibition of cell viability by MTT assay; type: functional, cell-based
HeLa = test: Cytotoxicity against human HeLa cells assessed as inhibition of cell viability by MTT assay; type: functional, cell-based

Compound | IC50 (A549) | IC50 (HeLa)
CS[C@@]12Cc3c([nH]c4ccccc34)[C@@](CO)(NC1=O)C(=O)N2 | 25 µM | 25 µM
CN1C(=O)[C@]2(Cc3c[nH]c4ccccc34)SSSS[C@@]1(CO)C(=O)N2C | 2.2 µM | 1.9 µM
CN1C(=O)[C@]2(Cc3cn([C@]45C[C@@]67SS[C@@](CO)(C(=O)N6[C@H]4Nc4ccccc45)N(C)C7=O)c4ccccc34)SS[C@@]1(CO)C(=O)N2C [CHETOMIN] | 3.5 µM | 2.4 µM
CNC(=O)[C@@]12C[C@]3(n4cc(C[C@@]56SSSS[C@@](CO)(C(=O)N5C)N(C)C6=O)c5ccccc54)c4ccccc4N[C@@H]3N1C(=O)C(=O)N[C@H]2C | 1.9 µM | 1.6 µM
CS[C@]1(CO)NC(=O)[C@](Cc2c[nH]c3ccccc23)(SC)NC1=O [CHETOSEMINUDIN C] | 30 µM | 33 µM
CS[C@@]1(CO)C(=O)N/C(=C\c2c[nH]c3ccccc23)C(=O)N1C | 30 µM | 30 µM
